Reference: PubChem BioAssay (NCI)
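Five concentrations, 48 hours, 96-well plates. TGI: total growth inhibition.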

How the values were obtained:
Assay in all cases: DTP human tumour cell line panel, 48 h
SF-539 CNS = system: SF-539 CNS
OVCAR-8 ovarian = system: OVCAR-8 ovarian
SNB-19 CNS = system: SNB-19 CNS
HT29 colon = system: HT29 colon
HCT-15 colon = system: HCT-15 colon
DU-145 prostate = system: DU-145 prostate
SW-620 colon = system: SW-620 colon
BT-549 breast = system: BT-549 breast
MDA-MB-435 = system: MDA-MB-435
M14 melanoma = system: M14 melanoma
NCI-H460 lung = system: NCI-H460 lung
SK-MEL-28 melanoma = system: SK-MEL-28 melanoma
NCI-H522 lung = system: NCI-H522 lung
NCI/ADR-RES ovarian = system: NCI/ADR-RES ovarian
RPMI-8226 leukemia = system: RPMI-8226 leukemia
TK-10 renal = system: TK-10 renal
MOLT-4 leukemia = system: MOLT-4 leukemia
MDA-MB-231 breast = system: MDA-MB-231 breast
A549 NSCLC = system: A549 NSCLC
HCC-2998 colon = system: HCC-2998 colon
SK-MEL-2 melanoma = system: SK-MEL-2 melanoma
KM12 colon = system: KM12 colon
UACC-257 melanoma = system: UACC-257 melanoma
A498 renal = system: A498 renal
T-47D breast = system: T-47D breast
MDA-N = system: MDA-N
MALME-3M melanoma = system: MALME-3M melanoma
786-0 renal = system: 786-0 renal
HOP-92 NSCLC = system: HOP-92 NSCLC
SF-268 CNS = system: SF-268 CNS
OVCAR-4 ovarian = system: OVCAR-4 ovarian
HCT-116 colon = system: HCT-116 colon
SK-OV-3 ovarian = system: SK-OV-3 ovarian
UO-31 renal = system: UO-31 renal
LOX IMVI melanoma = system: LOX IMVI melanoma
ACHN renal = system: ACHN renal
PC-3 prostate = system: PC-3 prostate
IGROV1 ovarian = system: IGROV1 ovarian
UACC-62 melanoma = system: UACC-62 melanoma
OVCAR-3 ovarian = system: OVCAR-3 ovarian
SN12C renal = system: SN12C renal
HOP-62 NSCLC = system: HOP-62 NSCLC
OVCAR-5 ovarian = system: OVCAR-5 ovarian
SK-MEL-5 melanoma = system: SK-MEL-5 melanoma
MCF7 breast = system: MCF7 breast
NCI-H23 lung = system: NCI-H23 lung
CCRF-CEM leukemia = system: CCRF-CEM leukemia
SF-295 CNS = system: SF-295 CNS
HL-60(TB) leukemia = system: HL-60(TB) leukemia
K-562 leukemia = system: K-562 leukemia
HS 578T breast = system: HS 578T breast
CAKI-1 renal = system: CAKI-1 renal
EKVX NSCLC = system: EKVX NSCLC
U251 CNS = system: U251 CNS
NCI-H226 lung = system: NCI-H226 lung
RXF 393 renal = system: RXF 393 renal
COLO 205 colon = system: COLO 205 colon
SNB-75 CNS = system: SNB-75 CNS

## COc1ccc(/C=C2\Sc3nnc(C)n3N=C2c2cc(F)c(Cl)cc2Cl)cc1OC
SF-539 CNS
  TGI: 37.7 µM
OVCAR-8 ovarian
  TGI: 37.9 µM
SNB-19 CNS
  TGI: 11.8 µM
HT29 colon
  TGI: 26.6 µM
HCT-15 colon
  TGI: 21.9 µM
DU-145 prostate
  TGI: 27.8 µM
SW-620 colon
  TGI: > 100 µM
BT-549 breast
  TGI: 34.1 µM
MDA-MB-435
  TGI: 23.2 µM
M14 melanoma
  TGI: 27.5 µM
NCI-H460 lung
  TGI: 53.1 µM
SK-MEL-28 melanoma
  TGI: 49.2 µM
NCI-H522 lung
  TGI: 38.7 µM
NCI/ADR-RES ovarian
  TGI: 35.6 µM
RPMI-8226 leukemia
  TGI: 11.1 µM
TK-10 renal
  TGI: 32.8 µM
MOLT-4 leukemia
  TGI: > 100 µM
MDA-MB-231 breast
  TGI: 79.8 µM
A549 NSCLC
  TGI: 56.2 µM
HCC-2998 colon
  TGI: 32.6 µM
SK-MEL-2 melanoma
  TGI: 33.6 µM
KM12 colon
  TGI: 33.1 µM
UACC-257 melanoma
  TGI: 32.5 µM
A498 renal
  TGI: 37.1 µM
T-47D breast
  TGI: > 100 µM
MDA-N
  TGI: 17.6 µM
MALME-3M melanoma
  TGI: 37.1 µM
786-0 renal
  TGI: 9.64 µM
HOP-92 NSCLC
  TGI: 28.6 µM
SF-268 CNS
  TGI: 50.9 µM
OVCAR-4 ovarian
  TGI: 28.8 µM
HCT-116 colon
  TGI: 18.5 µM
SK-OV-3 ovarian
  TGI: 76.9 µM
UO-31 renal
  TGI: 22.6 µM
LOX IMVI melanoma
  TGI: 31.4 µM
ACHN renal
  TGI: 27.1 µM
PC-3 prostate
  TGI: 37.7 µM
IGROV1 ovarian
  TGI: 31 µM
UACC-62 melanoma
  TGI: 33.4 µM
OVCAR-3 ovarian
  TGI: 16 µM
SN12C renal
  TGI: 34.5 µM
HOP-62 NSCLC
  TGI: 33.3 µM
OVCAR-5 ovarian
  TGI: 31.2 µM
SK-MEL-5 melanoma
  TGI: 36.2 µM
MCF7 breast
  TGI: 19.5 µM
NCI-H23 lung
  TGI: 26.7 µM
CCRF-CEM leukemia
  TGI: > 100 µM
SF-295 CNS
  TGI: 53.6 µM
HL-60(TB) leukemia
  TGI: 96.4 µM
K-562 leukemia
  TGI: 19.5 µM
HS 578T breast
  TGI: > 100 µM
CAKI-1 renal
  TGI: 23.7 µM
EKVX NSCLC
  TGI: 22.7 µM
U251 CNS
  TGI: 30.2 µM
NCI-H226 lung
  TGI: 51.8 µM
RXF 393 renal
  TGI: 32.7 µM
COLO 205 colon
  TGI: 54.3 µM

## COc1cc2c(cc1OC)C1=Cc3ccc(OC)c(OC)c3C(C#N)N1CC2 (configuration not stated)
SF-539 CNS
  TGI: > 100 µM
SNB-19 CNS
  TGI: > 100 µM
HT29 colon
  TGI: > 100 µM
HCT-15 colon
  TGI: > 100 µM
DU-145 prostate
  TGI: > 100 µM
SW-620 colon
  TGI: > 100 µM
BT-549 breast
  TGI: 63.2 µM
MDA-MB-435
  TGI: 82.3 µM
M14 melanoma
  TGI: > 100 µM
NCI-H460 lung
  TGI: > 100 µM
SK-MEL-28 melanoma
  TGI: > 100 µM
NCI-H522 lung
  TGI: > 100 µM
NCI/ADR-RES ovarian
  TGI: > 100 µM
SNB-75 CNS
  TGI: 33.8 µM
RPMI-8226 leukemia
  TGI: 76.3 µM
TK-10 renal
  TGI: > 100 µM
MOLT-4 leukemia
  TGI: > 100 µM
MDA-MB-231 breast
  TGI: 81.3 µM
A549 NSCLC
  TGI: > 100 µM
HCC-2998 colon
  TGI: 51.1 µM
SK-MEL-2 melanoma
  TGI: 43.4 µM
KM12 colon
  TGI: 58.7 µM
UACC-257 melanoma
  TGI: 47.4 µM
A498 renal
  TGI: > 100 µM
T-47D breast
  TGI: 40.4 µM
MDA-N
  TGI: > 100 µM
MALME-3M melanoma
  TGI: 82.9 µM
786-0 renal
  TGI: > 100 µM
SF-268 CNS
  TGI: > 100 µM
OVCAR-4 ovarian
  TGI: > 100 µM
HCT-116 colon
  TGI: > 100 µM
SK-OV-3 ovarian
  TGI: > 100 µM
UO-31 renal
  TGI: > 100 µM
ACHN renal
  TGI: > 100 µM
PC-3 prostate
  TGI: > 100 µM
UACC-62 melanoma
  TGI: 45.5 µM
OVCAR-3 ovarian
  TGI: > 100 µM
SN12C renal
  TGI: > 100 µM
HOP-62 NSCLC
  TGI: > 100 µM
OVCAR-5 ovarian
  TGI: > 100 µM
SK-MEL-5 melanoma
  TGI: 38.6 µM
MCF7 breast
  TGI: > 100 µM
NCI-H23 lung
  TGI: > 100 µM
CCRF-CEM leukemia
  TGI: > 100 µM
SF-295 CNS
  TGI: > 100 µM
HL-60(TB) leukemia
  TGI: > 100 µM
HS 578T breast
  TGI: > 100 µM
CAKI-1 renal
  TGI: > 100 µM
EKVX NSCLC
  TGI: > 100 µM
U251 CNS
  TGI: > 100 µM
NCI-H226 lung
  TGI: > 100 µM
COLO 205 colon
  TGI: 43.8 µM

## Cc1cccc(/C=N/NC(=S)N2CCCCCC2)n1
SF-539 CNS
  TGI: 0.549 µM
OVCAR-8 ovarian
  TGI: 0.428 µM
SNB-19 CNS
  TGI: > 100 µM
HT29 colon
  TGI: > 40 µM
HCT-15 colon
  TGI: > 36.3 µM
SW-620 colon
  TGI: > 100 µM
BT-549 breast
  TGI: 14.4 µM
MDA-MB-435
  TGI: 38.9 µM
M14 melanoma
  TGI: 0.441 µM
NCI-H460 lung
  TGI: 1.18 µM
SK-MEL-28 melanoma
  TGI: > 100 µM
NCI-H522 lung
  TGI: 0.788 µM
NCI/ADR-RES ovarian
  TGI: 0.202 µM
SNB-75 CNS
  TGI: 0.758 µM
RPMI-8226 leukemia
  TGI: 0.374 µM
TK-10 renal
  TGI: 4.8 µM
MDA-MB-231 breast
  TGI: 15.2 µM
A549 NSCLC
  TGI: 17.2 µM
HCC-2998 colon
  TGI: > 100 µM
SK-MEL-2 melanoma
  TGI: 19.2 µM
KM12 colon
  TGI: > 44.7 µM
UACC-257 melanoma
  TGI: 1.91 µM
A498 renal
  TGI: 13.5 µM
T-47D breast
  TGI: > 100 µM
MDA-N
  TGI: > 45.9 µM
MALME-3M melanoma
  TGI: 25.3 µM
786-0 renal
  TGI: 0.775 µM
HOP-92 NSCLC
  TGI: > 89.1 µM
HCT-116 colon
  TGI: 0.11 µM
UO-31 renal
  TGI: 9.91 µM
LOX IMVI melanoma
  TGI: 17 µM
ACHN renal
  TGI: 1.71 µM
PC-3 prostate
  TGI: > 72.5 µM
IGROV1 ovarian
  TGI: 1.55 µM
UACC-62 melanoma
  TGI: 1.08 µM
SN12C renal
  TGI: 0.805 µM
HOP-62 NSCLC
  TGI: 1.01 µM
OVCAR-5 ovarian
  TGI: > 72.2 µM
SK-MEL-5 melanoma
  TGI: 2 µM
NCI-H23 lung
  TGI: > 37.1 µM
SF-295 CNS
  TGI: 31.7 µM
HL-60(TB) leukemia
  TGI: 0.241 µM
K-562 leukemia
  TGI: > 100 µM
HS 578T breast
  TGI: > 100 µM
CAKI-1 renal
  TGI: 8.86 µM
EKVX NSCLC
  TGI: 9.32 µM
NCI-H226 lung
  TGI: 7.46 µM
RXF 393 renal
  TGI: 38.9 µM
COLO 205 colon
  TGI: 0.632 µM

## Nc1ccccc1/C=C\c1ccccc1
SF-539 CNS
  TGI: > 100 µM
OVCAR-8 ovarian
  TGI: > 100 µM
SNB-19 CNS
  TGI: > 100 µM
HT29 colon
  TGI: > 100 µM
HCT-15 colon
  TGI: > 100 µM
DU-145 prostate
  TGI: > 100 µM
SW-620 colon
  TGI: > 100 µM
BT-549 breast
  TGI: > 100 µM
MDA-MB-435
  TGI: > 100 µM
M14 melanoma
  TGI: > 100 µM
NCI-H460 lung
  TGI: > 100 µM
SK-MEL-28 melanoma
  TGI: > 100 µM
NCI/ADR-RES ovarian
  TGI: > 100 µM
SNB-75 CNS
  TGI: > 100 µM
RPMI-8226 leukemia
  TGI: > 100 µM
TK-10 renal
  TGI: > 100 µM
MOLT-4 leukemia
  TGI: > 100 µM
A549 NSCLC
  TGI: > 100 µM
KM12 colon
  TGI: > 100 µM
UACC-257 melanoma
  TGI: > 100 µM
T-47D breast
  TGI: > 100 µM
MDA-N
  TGI: > 100 µM
MALME-3M melanoma
  TGI: > 100 µM
786-0 renal
  TGI: > 100 µM
HOP-92 NSCLC
  TGI: > 100 µM
SF-268 CNS
  TGI: > 100 µM
HCT-116 colon
  TGI: > 100 µM
SK-OV-3 ovarian
  TGI: > 100 µM
UO-31 renal
  TGI: > 100 µM
ACHN renal
  TGI: > 100 µM
PC-3 prostate
  TGI: > 100 µM
IGROV1 ovarian
  TGI: > 100 µM
UACC-62 melanoma
  TGI: > 100 µM
OVCAR-3 ovarian
  TGI: > 100 µM
SN12C renal
  TGI: > 100 µM
HOP-62 NSCLC
  TGI: > 100 µM
OVCAR-5 ovarian
  TGI: > 100 µM
SK-MEL-5 melanoma
  TGI: > 100 µM
MCF7 breast
  TGI: > 100 µM
NCI-H23 lung
  TGI: > 100 µM
CCRF-CEM leukemia
  TGI: > 100 µM
SF-295 CNS
  TGI: > 100 µM
HL-60(TB) leukemia
  TGI: > 100 µM
K-562 leukemia
  TGI: > 100 µM
HS 578T breast
  TGI: > 100 µM
EKVX NSCLC
  TGI: > 100 µM
U251 CNS
  TGI: > 100 µM
NCI-H226 lung
  TGI: > 100 µM
RXF 393 renal
  TGI: > 100 µM
